From PubChem BioAssay (NCI)
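Grown in 96-well plates, cells were treated for 48 hours with each compound at five concentrations. Insufficient inhibition: endpoint recorded as highest concentration tested. TGI is the concentration that stops growth completely.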

Key:
Assay in all cases: DTP human tumour cell line panel, 48 h
SF-539 CNS = test system: SF-539 CNS
MOLT-4 leukemia = test system: MOLT-4 leukemia
T-47D breast = test system: T-47D breast
ACHN renal = test system: ACHN renal
EKVX NSCLC = test system: EKVX NSCLC
OVCAR-3 ovarian = test system: OVCAR-3 ovarian
OVCAR-8 ovarian = test system: OVCAR-8 ovarian
SNB-75 CNS = test system: SNB-75 CNS
U251 CNS = test system: U251 CNS
OVCAR-4 ovarian = test system: OVCAR-4 ovarian
RPMI-8226 leukemia = test system: RPMI-8226 leukemia
LOX IMVI melanoma = test system: LOX IMVI melanoma
SK-MEL-5 melanoma = test system: SK-MEL-5 melanoma
CAKI-1 renal = test system: CAKI-1 renal
HL-60(TB) leukemia = test system: HL-60(TB) leukemia
SK-OV-3 ovarian = test system: SK-OV-3 ovarian
MDA-MB-231 breast = test system: MDA-MB-231 breast
MALME-3M melanoma = test system: MALME-3M melanoma
NCI/ADR-RES ovarian = test system: NCI/ADR-RES ovarian
SR leukemia = test system: SR leukemia
MCF7 breast = test system: MCF7 breast
SK-MEL-2 melanoma = test system: SK-MEL-2 melanoma
NCI-H23 lung = test system: NCI-H23 lung
HT29 colon = test system: HT29 colon
UO-31 renal = test system: UO-31 renal
HCT-15 colon = test system: HCT-15 colon
786-0 renal = test system: 786-0 renal
UACC-257 melanoma = test system: UACC-257 melanoma
K-562 leukemia = test system: K-562 leukemia
NCI-H226 lung = test system: NCI-H226 lung
HOP-62 NSCLC = test system: HOP-62 NSCLC
OVCAR-5 ovarian = test system: OVCAR-5 ovarian
SNB-19 CNS = test system: SNB-19 CNS
HOP-92 NSCLC = test system: HOP-92 NSCLC
IGROV1 ovarian = test system: IGROV1 ovarian
A498 renal = test system: A498 renal
DU-145 prostate = test system: DU-145 prostate
MDA-MB-435 = test system: MDA-MB-435
TK-10 renal = test system: TK-10 renal
SN12C renal = test system: SN12C renal
M14 melanoma = test system: M14 melanoma
PC-3 prostate = test system: PC-3 prostate
CCRF-CEM leukemia = test system: CCRF-CEM leukemia
A549 NSCLC = test system: A549 NSCLC
UACC-62 melanoma = test system: UACC-62 melanoma
RXF 393 renal = test system: RXF 393 renal
HS 578T breast = test system: HS 578T breast
HCT-116 colon = test system: HCT-116 colon
COLO 205 colon = test system: COLO 205 colon
SK-MEL-28 melanoma = test system: SK-MEL-28 melanoma
SF-295 CNS = test system: SF-295 CNS
SF-268 CNS = test system: SF-268 CNS
BT-549 breast = test system: BT-549 breast

CN1CN(c2ccccc2)C2(CCN(Cc3nc4ccccc4s3)CC2)C1=O
TGI (SF-539 CNS): 32.4 µM | TGI (MOLT-4 leukemia): 34.3 µM | TGI (T-47D breast): 32 µM | TGI (ACHN renal): 39.8 µM | TGI (EKVX NSCLC): 48.3 µM | TGI (OVCAR-3 ovarian): 32.4 µM | TGI (OVCAR-8 ovarian): 28.8 µM | TGI (SNB-75 CNS): 32.6 µM | TGI (U251 CNS): 30 µM | TGI (OVCAR-4 ovarian): 38 µM | TGI (RPMI-8226 leukemia): 36.2 µM | TGI (LOX IMVI melanoma): 34.9 µM | TGI (SK-MEL-5 melanoma): 29.6 µM | TGI (CAKI-1 renal): 49.6 µM | TGI (HL-60(TB) leukemia): 29.1 µM | TGI (SK-OV-3 ovarian): 52.7 µM | TGI (MDA-MB-231 breast): 27.2 µM | TGI (MALME-3M melanoma): 31.8 µM | TGI (NCI/ADR-RES ovarian): 33.5 µM | TGI (SR leukemia): 33.9 µM | TGI (MCF7 breast): 29.5 µM | TGI (SK-MEL-2 melanoma): 34.1 µM | TGI (NCI-H23 lung): 34.2 µM | TGI (HT29 colon): 30.7 µM | TGI (UO-31 renal): 29 µM | TGI (HCT-15 colon): 35.1 µM | TGI (786-0 renal): 31.3 µM | TGI (UACC-257 melanoma): 30.4 µM | TGI (K-562 leukemia): 32.4 µM | TGI (NCI-H226 lung): 36.2 µM | TGI (HOP-62 NSCLC): 30.7 µM | TGI (OVCAR-5 ovarian): 34.1 µM | TGI (SNB-19 CNS): 28.6 µM | TGI (HOP-92 NSCLC): 28.5 µM | TGI (IGROV1 ovarian): 30.4 µM | TGI (A498 renal): 30.7 µM | TGI (DU-145 prostate): 38.3 µM | TGI (MDA-MB-435): 32.3 µM | TGI (TK-10 renal): 34.9 µM | TGI (SN12C renal): 31.7 µM | TGI (M14 melanoma): 26.3 µM | TGI (PC-3 prostate): 28.8 µM | TGI (CCRF-CEM leukemia): 41.6 µM | TGI (A549 NSCLC): 33.4 µM | TGI (UACC-62 melanoma): 30.1 µM | TGI (RXF 393 renal): 29.9 µM | TGI (HS 578T breast): 41.8 µM | TGI (HCT-116 colon): 28.1 µM | TGI (COLO 205 colon): 32.1 µM | TGI (SK-MEL-28 melanoma): 31.5 µM | TGI (SF-295 CNS): 32 µM | TGI (SF-268 CNS): 44.3 µM | TGI (BT-549 breast): 30.3 µM
